Laboratory results: PMC12501029, “Discovery of a CNS active GSK3 degrader using orthogonally reactive linker screening” (Nature Communications, 2025)

Legend:
[1] = Cassette PK study with 22, 25 and 26; assay type: in vivo, female Balb/c mice; details: i.v. bolus cassette 0.5 mg/kg; for AUC(0-t) / clearance: female, Balb/c, mouse, iv, whole blood; for clearance: read-out: Cl_obs
Excerpt: Fifteen female mice of the Balb/c strain were obtained from Charles River Laboratories, UK. Animals were maintained under a 12-h light/12-h dark cycle, in Thoren mouse caging containing EC0 aspen bedding (DBM, UK), with 'Sizzlenest' and 'Rodent Rolls' nesting material (DBM). Enrichment materials included aspen chew sticks, cardboard houses, tunnels, swings, and sunflower seeds. All animals had ad libitum access to food (5LF2 Extruded Diet, IPS Ltd, UK) and tap water throughout. Temperature and relative humidity were maintained between 19 °C–24 °C and 45%–65%, respectively. All animals received a minimum of 10 days of acclimatisation prior to the start of the study.
The cassette formulation (22, 25 and 26) was prepared by producing separate stock solutions of each compound dissolved in DMSO (dimethyl sulfoxide) at a concentration of 6 mg/mL. Aliquots of each stock solution were combined in equal parts to produce a stock solution containing 2 mg/mL of each compound. This solution was then diluted with Polyethylene glycol 400 (PEG400), followed by drop-wise addition of sterile water. The final formulation consisted of 5% DMSO, 40% PEG400, and 55% water, and contained 0.1 mg/mL of each compound. For the cassette PK study, three female Balb/c mice were dosed via a bolus intravenous injection at a dose level of 0.5 mg/kg per compound (5 mL/kg). Serial blood samples (10 µL per sample) were collected from the lateral tail vein of each mouse at 5, 15 and 30 min, 1, 2, 4, 6, 8, and 24 h after dose administration. All blood samples were diluted into 90 µL of Milli‑Q ultrapure water and stored at −20 °C prior to bioanalysis. The concentration of 22, 25 and 26 in blood and brain was determined by UPLC-MS/MS.
Blood samples (10 µL) from study mice were diluted 1× with 90 µL of water immediately when the sample was taken. All calibration, quality control, blanks and double blank samples (all 100 µL volume) were mixed (vortexed) with 300 µL of LCMS grade acetonitrile to precipitate proteins.
For study samples, a volume (30 µL) was mixed (vortexed) with a volume (90 µL) of acetonitrile to precipitate proteins. After protein precipitation, all samples were centrifuged to pellet the proteins. Study samples in Micronics tubes were centrifuged using a Beckman Coutler Allegra C-12R Centrifuge for 10 min at 3750 rpm. All other samples in Eppendorf tubes were centrifuged using a Sigma SciQuip 1–14 centrifuge for 10 min (14,800 rpm/16,163 × g). Supernatant from study samples (80 µL) and calibration samples, QCs, blanks, and double blanks (200 µL) were then transferred to HPLC glass vials containing Milli-Q water (40 µL or 100 µL, respectively), ready for LCMS analysis.

GSK3β-HiBiT = target: T1, GSK3β-HiBiT (Homo sapiens, UniProt P49841); assay: Kinetic live cell degradation assay (LgBit transfected GSK3β-HiBiT KI HEK293 cells); assay type: cell-based
T1 construct: we generated endogenously tagged GSK3β-HiBiT knock-in (KI) HEK293 cells; endogenous in cells; host or cells: GSK3β-HiBiT KI HEK293 cells, transiently transfected with LgBit (Promega)
T1 sequence (P49841 whole entry): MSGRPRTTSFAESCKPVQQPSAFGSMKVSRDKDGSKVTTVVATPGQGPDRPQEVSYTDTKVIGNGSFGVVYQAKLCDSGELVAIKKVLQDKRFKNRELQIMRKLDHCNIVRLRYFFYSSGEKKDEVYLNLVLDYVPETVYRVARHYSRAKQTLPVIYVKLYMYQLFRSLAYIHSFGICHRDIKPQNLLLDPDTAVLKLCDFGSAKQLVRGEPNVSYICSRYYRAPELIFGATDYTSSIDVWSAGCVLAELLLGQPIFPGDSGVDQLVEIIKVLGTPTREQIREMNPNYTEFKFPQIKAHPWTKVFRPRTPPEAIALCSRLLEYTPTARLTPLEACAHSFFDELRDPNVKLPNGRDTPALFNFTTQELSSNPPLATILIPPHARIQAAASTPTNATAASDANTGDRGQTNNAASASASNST
T1 sequence (Q96SW2 whole entry partner): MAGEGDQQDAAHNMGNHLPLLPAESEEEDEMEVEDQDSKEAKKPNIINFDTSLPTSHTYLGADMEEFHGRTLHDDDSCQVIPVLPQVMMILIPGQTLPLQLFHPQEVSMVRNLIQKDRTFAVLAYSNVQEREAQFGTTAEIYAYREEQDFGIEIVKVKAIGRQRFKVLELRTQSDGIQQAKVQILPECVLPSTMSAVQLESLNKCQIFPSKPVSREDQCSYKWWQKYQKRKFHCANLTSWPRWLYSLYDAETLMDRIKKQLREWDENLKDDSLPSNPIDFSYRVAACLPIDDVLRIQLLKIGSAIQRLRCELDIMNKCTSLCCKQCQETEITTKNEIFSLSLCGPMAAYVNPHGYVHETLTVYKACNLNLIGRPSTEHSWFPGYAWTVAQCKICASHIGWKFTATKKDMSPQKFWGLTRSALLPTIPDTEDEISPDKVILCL
Procedure: For kinetic degradation assays, GSK3β-HiBiT KI HEK293 cells were reverse transfected into white bottom opaque 96-well assay plates. Briefly, GSK3β-HiBiT KI HEK293 cell suspension at a density of 2 × 10^6 per mL was prepared in standard culturing media. 10 mL of cell suspension mixed with transfection mix (1 mL of OptiMEM (Gibco) containing 3:1 ratio of FuGENE HD (Promega) and LgBit (Promega)). Then, cells were seeded into 96-well assay plate as a 100 µL cell suspension per well. After 24 h of transfection, the cell media was removed and 90 µL of CO2-independent medium supplemented with 10% FBS (Gibco) and 1:100 dilution of Endurazine (Promega) and incubated for 2.5 h at 37 °C. Test compounds were added onto cells and luminescence signals were monitored and recorded on GloMAX discover plate reader (Promega) in kinetic mode every 5 min. Data were normalised to DMSO conditions and plotted over time and degradation rates were calculated via Michaelis–Menten non-linear fitting analysis using GraphPad Prism (v10.1.2).

[2] = Plasma protein binding, equilibrium dialysis, mouse; assay type: in vitro ADME; details: female, CD1, mouse
Procedure: (§1) A 96-well equilibrium dialysis apparatus was used to determine the free fraction in plasma for each compound (HT Dialysis LLC, Gales Ferry, CT). Membranes (12–14 kDA cut-off) were conditioned in deionised water for 60 min, followed by conditioning in 80:20 deionised water: ethanol for 20 min, and then rinsed in isotonic buffer before use. Female CD1 mouse, Male rat Han Wistar and human plasma was removed from the freezer and allowed to thaw on the day of experiment. Thawed plasma was then centrifuged (Allegra X12-R, Beckman Coulter, USA), spiked with test compound (final concentration 10 μg/mL), and 150 μL aliquots (n = 6 replicate determinations) loaded into the 96-well equilibrium dialysis plate. Dialysis vs isotonic buffer (150 μL) was carried out for 5 h in a temperature-controlled incubator at ca. 37 °C (Barworld Scientific Ltd, UK) using an orbital microplate shaker at 100 revolutions/minute (Barworld Scientific Ltd, UK). At the end of the incubation period, 50 μL aliquots of plasma or buffer were transferred to a 96-well 2.1 mL Waters ^TM plate and the composition in each well balanced with control fluid (50 μL), such that the volume of buffer to plasma is the same. Sample extraction was performed by the addition of 200 μL of acetonitrile containing an appropriate internal standard. Samples were allowed to mix for 1 min and then centrifuged at 3000 rpm in 96-well blocks for 15 min (Allegra X12-R, Beckman Coulter, USA), after which 150 μL of supernatant was removed to 50 μL of water. All samples were analysed by UPLC-MS/MS. The unbound fraction was determined as the ratio of the peak area in buffer to that in plasma.

[3] = Plasma protein binding, equilibrium dialysis, rat; assay type: in vitro ADME; details: male, Han Wistar, 5 h dialysis, read-out: Plasma Protein Binding (Fu) Rat
Procedure: as §1, with “Sample extraction was performed by the addition of 200 μL of acetonitrile containing an appropriate internal standard. Samples were allowed to mix for 1 min and then centrifuged at 3000 rpm in 96-well blocks for 15 min (Allegra X12-R, Beckman Coulter, USA), after which 150 μL of supernatant was removed to 50 μL of water.” left out

[4] = Plasma protein binding, equilibrium dialysis, human; assay type: in vitro ADME; details: 5 h dialysis, read-out: Plasma Protein Binding (Fu) Hu
Procedure: as §1, with “Sample extraction was performed by the addition of 200 μL of acetonitrile containing an appropriate internal standard. Samples were allowed to mix for 1 min and then centrifuged at 3000 rpm in 96-well blocks for 15 min (Allegra X12-R, Beckman Coulter, USA), after which 150 μL of supernatant was removed to 50 μL of water.” left out

[5] = 10 μg/mL, 5 h dialysis, read-out: Plasma Protein Binding (Fu) Mu

## O=C1CCC(NC(=O)c2ccc(CN3CCN(Cc4ccc(-c5cn(-c6ccc(-c7cn8nccc(C(=O)Nc9cnccc9N9CCOCC9)c8n7)cc6)nn5)nc4)CC3)cn2)C(=O)N1 (stereo not shown) [compound 22]
[1]
  AUC(0-t): 444 ng·h/mL
  clearance: 12 mL/min/kg
  Cl_obs: moderate
  Half_Life: 2.8 h
  Vss_obs: 2.8 L/kg

## Cn1nc(N2CCC(=O)NC2=O)c2ccc(CN3CCN(Cc4ccc(-c5cn(-c6ccc(-c7cn8nccc(C(=O)Nc9cnccc9N9CCOCC9)c8n7)cc6)nn5)nc4)CC3)cc21 [compound 24]
GSK3β-HiBiT; live cell, Michaelis-Menten fit
  maximal degradation rate (λmax): ~ 1.0 h^−1
[2]; [5]
  fraction unbound at 5 h, 10 μg/mL: 0.0052
[2]; equilibrium dialysis, read-out: unbound fraction in mouse plasma
  fraction unbound at 5 h, 10 μg/mL: 0.005
[3]
  fraction unbound at 5 h, 10 μg/mL: 0.00064
[4]
  fraction unbound at 5 h, 10 μg/mL: 0.0072

## Cn1nc(N2CCC(=O)NC2=O)c2ccc(CN3CCN(CCCc4cn(-c5ccc(-c6cn7nccc(C(=O)Nc8cnccc8N8CCOCC8)c7n6)cc5)nn4)CC3)cc21 [compound 26]
GSK3β-HiBiT; 10 nM, after 2 h
  degradation of GSK3β in live cells: almost complete degradation
[2]; [5]
  fraction unbound at 5 h, 10 μg/mL: 0.021
[3]
  fraction unbound at 5 h, 10 μg/mL: 0.01
[4]
  fraction unbound at 5 h, 10 μg/mL: 0.05
[1]
  AUC(0-t): 590 ng·h/mL
  clearance: 8 mL/min/kg
  Cl_obs: moderate
  Half_Life: 2.7 h
  Vss_obs: 1.9 L/kg
